These compounds were tested against human activated kallikrein enzyme (Homo sapiens, UniProt P03952) (assay: Inhibition of human activated plasma kallikrein, fluorogenic PFR-AMC substrate, 500 pM enzyme format). Conditions: 500 pM activated kallikrein; 300 μM PFR-AMC; 30 min preincubation; 10 min room temperature; pH 7.5; read-out: Primary Dose Response Assay: Average EC50.
human activated kallikrein enzyme, sequence (P03952 391-638 limits assumed): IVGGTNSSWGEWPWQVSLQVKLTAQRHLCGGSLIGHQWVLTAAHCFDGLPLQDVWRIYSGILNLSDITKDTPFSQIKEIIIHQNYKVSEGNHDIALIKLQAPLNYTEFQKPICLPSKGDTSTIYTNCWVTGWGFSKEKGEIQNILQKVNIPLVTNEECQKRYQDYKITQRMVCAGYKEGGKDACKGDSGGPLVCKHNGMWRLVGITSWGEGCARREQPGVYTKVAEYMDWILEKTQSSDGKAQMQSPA
human activated kallikrein enzyme, sequence (P03952 20-390 partner limits assumed): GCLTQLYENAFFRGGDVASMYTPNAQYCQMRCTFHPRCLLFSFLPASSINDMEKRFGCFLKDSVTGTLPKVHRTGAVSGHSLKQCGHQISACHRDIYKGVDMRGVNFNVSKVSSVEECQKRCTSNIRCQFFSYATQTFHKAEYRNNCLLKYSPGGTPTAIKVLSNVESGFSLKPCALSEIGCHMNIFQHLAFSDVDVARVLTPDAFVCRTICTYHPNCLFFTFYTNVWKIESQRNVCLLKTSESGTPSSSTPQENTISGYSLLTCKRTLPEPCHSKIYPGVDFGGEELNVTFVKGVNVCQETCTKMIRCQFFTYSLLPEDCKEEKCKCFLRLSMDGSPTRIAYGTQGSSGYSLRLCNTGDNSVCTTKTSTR
Assay type: biochemical
Procedure, shortened: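 500 pM activated kallikrein preincubated 30 min at room temperature with inhibitors in pH 7.5 Tris/EDTA/NaCl buffer with PEG-400 and Triton X-100. Reaction started with 300 μM PFR-AMC, run 10 min at room temperature; AMC fluorescence read at ex 380/em 460 nm.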
For `Cc1cc2c(N)nccc2c(C)c1CNC(=O)c1cnn(Cc2ccccc2C(F)(F)F)c1` [Example 42, N-((1-amino-5,7-dimethylisoquinolin-6-yl)methyl)-1-(2-(trifluoromethyl)benzyl)-1H-pyrazole-4-carboxamide], the EC50 was over 1000 nM. `Cc1cc2c(N)nccc2c(C)c1CNC(=O)c1cnn(Cc2ccc(Cc3cccn(CC(F)(F)F)c3=O)cc2)c1` [Example 196, N-((1-amino-5,7-dimethylisoquinolin-6-yl)methyl)-1-(4-((2-oxo-1-(2,2,2-trifluoroethyl)-1,2-dihydropyridin-3-yl)methyl)benzy1)-1H-pyrazole-4-carboxamide] was tested, and the EC50 was 1 to 10 nM. With `CCCCc1cc(COc2cc(NCc3c(C)cc4c(N)nccc4c3C)ncn2)cc2cc(Cl)cnc12` [Example 402, 6-(((6-((8-butyl-3-chloroquinolin-6-yl)methoxy)pyrimidin-4-yl)amino)methyl)-5,7-dimethylisoquinolin-1-amine] the EC50 was 100 to 1000 nM. `Cc1cc2c(N)nccc2c(C)c1CNc1ccnc(OCc2cn3cc(C4CC4)ccc3n2)c1` [Example 279, 6-(((2-((6-cyclopropylimidazo[1,2-a]pyridin-2-yl)methoxy)pyridin-4-yl)amino)methyl)-5,7-dimethylisoquinolin-1-amine] showed an EC50 of 1 to 10 nM. `Cc1cc2c(N)nccc2c(C)c1CNC(=O)c1cnn(Cc2cn3c(C)c(Br)ccc3n2)c1` [Example 145, N-((1-amino-5,7-dimethylisoquinolin-6-yl)methyl)-1-((6-bromo-5-methylimidazo[1,2-a]pyridin-2-yl)methyl)-1H-pyrazole-4-carboxamide] was tested, and the EC50 was under 1 nM. With `Cc1cc2c(N)nccc2c(C)c1CNc1cc(N(C)Cc2ccc3ncccc3c2)cnn1` [Example 428, N^3-((1-amino-5,7-dimethylisoquinolin-6-yl)methyl)-N^5-methyl-N^5-(quinolin-6-ylmethyl)pyridazine-3,5-diamine] the EC50 was 1 to 10 nM. `Cc1cc2c(N)nccc2c(C)c1CNC(=O)c1cnn(Cc2ccc(C3CCN(C)C3=O)cc2)c1` (centres unmarked) [Example I-475, N-((1-amino-5,7-dimethylisoquinolin-6-yl)methyl)-1-(4-(1-methyl-2-oxopyrrolidin-3-yl)benzyl)-1H-pyrazole-4-carboxamide] gave an EC50 of 1 to 10 nM. Work on `Cc1cc2c(N)nccc2c(C)c1CNc1nncc(NCc2ccc(Cn3cccn3)cc2)n1` [Example 376, N^5-(4-((1H-pyrazol-1-yl)methyl)benzyl)-N^3-((1-amino-5,7-dimethylisoquinolin-6-yl)methyl)-1,2,4-triazine-3,5-diamine] yielded an EC50 of under 1 nM. For `CCOC(=O)CCc1nc(NCc2c(C)cc3c(N)nccc3c2C)cc(OCc2cn3cc(C4CC4)cnc3n2)n1` [Example 291, ethyl 3-(4-(((1-amino-5,7-dimethylisoquinolin-6-yl)methyl)amino)-6-((6-cyclopropylimidazo[1,2-a]pyrimidin-2-yl)methoxy)pyrimidin-2-yl)propanoate], the EC50 was 1 to 10 nM. `Cc1cc2c(N)nccc2c(C)c1CNc1cc(NC(C)c2ccc3ncc(Cl)cc3c2)ncn1` (centres unmarked) [Example 310, N^4-((1-amino-5,7-dimethylisoquinolin-6-yl)methyl)-N^6-(1-(3-chloroquinolin-6-yl)ethyl)pyrimidine-4,6-diamine] gave an EC50 of under 1 nM. `Cc1cc2c(N)nccc2c(C)c1CNC(=O)c1cnn(Cc2ccc3ccccc3c2)c1` [Example 56, N-((1-amino-5,7-dimethylisoquinolin-6-yl)methyl)-1-(naphthalen-2-ylmethyl)-1H-pyrazole-4-carboxamide] was tested, and the EC50 was 1 to 10 nM. `Cc1cc2c(N)nccc2c(C)c1CNc1cc(OCc2ccc3ncccc3c2)cnn1` [Example 409, 5,7-dimethyl-6-(((5-(quinolin-6-ylmethoxy)pyridazin-3-yl)amino)methyl)isoquinolin-1-amine] gave an EC50 of 1 to 10 nM. `Cc1ccc2nc(Cn3cc(C(=O)NCc4c(C)cc5c(N)nccc5c4C)cn3)nn2c1` [Example 15, N-((1-amino-5,7-dimethylisoquinolin-6-yl)methyl)-1-((6-methyl-[1,2,4]triazolo[1,5-a]pyridin-2-yl)methyl)-1H-pyrazole-4-carboxamide] showed an EC50 of under 1 nM. In the case of `COc1ccnc2ccc(CNc3cc(NCc4c(C)cc5c(N)nccc5c4C)ncn3)cc12` [Example 323, N^4-((1-amino-5,7-dimethylisoquinolin-6-yl)methyl)-N^6-((4-methoxyquinolin-6-yl)methyl)pyrimidine-4,6-diamine], the EC50 is reported as 1 to 10 nM. `Cc1ccc2nc(COc3cnnc(NCc4c(C)cc5c(N)nccc5c4C)c3)cn2c1` [Example 425, 5,7-dimethyl-6-(((5-((6-methylimidazo[1,2-a]pyridin-2-yl)methoxy)pyridazin-3-yl)amino)methyl)isoquinolin-1-amine] showed an EC50 of under 1 nM. Compound `Cc1cc2c(N)nccc2c(C)c1CNC(=O)c1cnn(Cc2ccc(CC(=O)Nc3ccccc3)cc2)c1` [Example 227, N-((1-amino-5,7-dimethylisoquinolin-6-yl)methyl)-1-(4-(2-oxo-2-(phenylamino)ethyl)benzyl)-1H-pyrazole-4-carboxamide] has an EC50 of 10 to 100 nM. `Cc1cc2c(N)nccc2c(C)c1CNC(=O)c1cnn(Cc2ccc3ncc(C4CC4)cc3c2)c1` [Example 28, N-((1-amino-5,7-dimethylisoquinolin-6-yl)methyl)-1-((3-cyclopropylquinolin-6-yl)methyl)-1H-pyrazole-4-carboxamide] gave an EC50 of under 1 nM. With `Cc1cc2c(N)nccc2c(C)c1CNc1cc(NCc2ccc(OCC(=O)N3CCCC3)cc2)ncn1` [Example 345, 2-(4-(((6-(((1-amino-5,7-dimethylisoquinolin-6-yl)methyl)amino)pyrimidin-4-yl)amino)methyl)phenoxy)-1-(pyrrolidin-1-yl)ethan-1-one] the EC50 was under 1 nM. For `Cc1ccc2cnc(Cn3cc(C(=O)NCc4c(C)cc5c(N)nccc5c4C)cn3)cc2c1` [Example 1, N-((1-amino-5,7-dimethylisoquinolin-6-yl)methyl)-1-((6-methylisoquinolin-3-yl)methyl)-1H-pyrazole-4-carboxamide], the EC50 was under 1 nM. For `CNC(=O)Cc1ccc(Cn2cc(C(=O)NCc3c(C)cc4c(N)nccc4c3C)cn2)cc1` [Example 230, N-((1-amino-5,7-dimethylisoquinolin-6-y1)methy1)-1-(4-(2-(methylamino)-2-oxoethyl)benzyl)-1H-pyrazole-4-carboxamide], the EC50 was under 1 nM. In the case of `Cc1cc2c(N)nccc2c(C)c1CNc1cc(OCc2ccccc2)ncn1` [Example 449, 6-(((6-(benzyloxy)pyrimidin-4-yl)amino)methyl)-5,7-dimethylisoquinolin-1-amine], the EC50 is reported as over 1000 nM. Compound `Cc1cc2c(N)nccc2c(C)c1CNc1cc(NCc2ccc3c(-n4ccccc4=O)cccc3c2)ncn1` [Example 245, 1-(6-(((6-(((1-amino-5,7-dimethylisoquinolin-6-yl)methyl)amino)pyrimidin-4-yl)amino)methyl)naphthalen-1-yl)pyridin-2(1H)-one] has an EC50 of under 1 nM. In the case of `Nc1nccc2cc(CNc3cc(OCc4ccc(Cn5cccn5)cc4)ncn3)c(C(F)(F)F)cc12` [Example 535, 6-(((6-((4-((1H-pyrazol-1-yl)methyl)benzyl)oxy)pyrimidin-4-yl)amino)methyl)-7-(trifluoromethyl)isoquinolin-1-amine], the EC50 is reported as 100 to 1000 nM. Work on `Cc1cc2c(N)nccc2c(C)c1CNc1cc(OCc2cn3cc(C4CC4)cnc3n2)nc(C(=O)O)n1` [Example 488, 4-(((1-amino-5,7-dimethylisoquinolin-6-yl)methyl)amino)-6-((6-cyclopropylimidazo[1,2-a]pyrimidin-2-yl)methoxy)pyrimidine-2-carboxylic acid] yielded an EC50 of under 1 nM. `Cc1cc2c(N)nccc2c(C)c1CNc1cc(OCc2ccc(-n3ccnc3)cc2)cnn1` [Example 441, 6-(((5-((4-(1H-imidazol-1-yl)benzyl)oxy)pyridazin-3-yl)amino)methyl)-5,7-dimethylisoquinolin-1-amine] gave an EC50 of 1 to 10 nM. `Cc1cc2c(N)nccc2c(C)c1CNC(=O)c1cnn(Cc2cccc(C3CC3)c2)c1` [Example 31, N-((1-amino-5,7-dimethylisoquinolin-6-yl)methyl)-1-(3-cyclopropylbenzyl)-1H-pyrazole-4-carboxamide] gave an EC50 of 1 to 10 nM. With `Cc1cc2c(N)nccc2c(C)c1CNC(=O)c1cnn(Cc2ccc3cc(F)ccc3n2)c1` [Example 158, N-((1-amino-5,7-dimethylisoquinolin-6-yl)methyl)-1-((6-fluoroquinolin-2-yl)methyl)-1H-pyrazole-4-carboxamide] the EC50 was 1 to 10 nM. `Cc1cc2c(N)nccc2c(C)c1CNc1cc(NCc2ccc(OCc3nccs3)cc2)ncn1` [Example 356, N^4-((1-amino-5,7-dimethylisoquinolin-6-yl)methyl)-N^6-(4-(thiazol-2-ylmethoxy)benzyl)pyrimidine-4,6-diamine] showed an EC50 of under 1 nM. Compound `Cc1cc2c(N)nccc2c(C)c1CNC(=O)c1cnn(Cc2ccc(CC(=O)N(C)C)c(Cl)c2)c1` [Example 151, N-((1-amino-5,7-dimethylisoquinolin-6-yl)methyl)-1-(3-chloro-4-(2-(dimethylamino)-2-oxoethyl)benzyl)-1H-pyrazole-4-carboxamide] has an EC50 of under 1 nM. In the case of `Cc1cc2c(N)nccc2c(C)c1CNc1cc(NCc2ccc3ccccc3c2)ncn1` [Example 233, N4-((1-amino-5,7-dimethylisoquinolin-6-yl)methyl)-N6-(naphthalen-2-ylmethyl)pyrimidine-4,6-diamine], the EC50 is reported as 10 to 100 nM. `Cc1cc2c(N)nccc2c(C)c1CNc1cc(=O)n(Cc2cn3c(=O)n(C4CC4)ccc3n2)cn1` [Example 505, 2-((4-(((1-amino-5,7-dimethylisoquinolin-6-yl)methyl)amino)-6-oxopyrimidin-1(6H)-yl)methyl)-6-cyclopropylimidazo[1,2-c]pyrimidin-5(6H)-one] was tested, and the EC50 was over 1000 nM. `Cc1cc2c(N)nccc2c(C)c1CNc1cc(OCc2nc3cc(C4CC4)ccc3s2)ncn1` [Example 282, 6-(((6-((5-cyclopropylbenzo[d]thiazol-2-yl)methoxy)pyrimidin-4-yl)amino)methyl)-5,7-dimethylisoquinolin-1-amine] gave an EC50 of 100 to 1000 nM.

Source: US20260374754A1, “N-((ISOQUINOLIN-6-YL)METHYL)-1H-PYRAZOLE-4-CARBOXAMIDE DERIVATIVES AS PLASMA KALLIKREIN INHIBITORS FOR THE TREATMENT OF HEREDITARY ANGIODEMA” (Takeda Pharmaceutical Company Limited, priority 2022, published 2026)
